Usually solubility stands for how much of the substance goes into solution per volume. Low readings indicate little dissolved substance, high ones much dissolved substance.

This note sets out measurements from US20240058422A1, “GLUCAGON-LIKE PEPTIDE-1 RECEPTOR ANTAGONISTS” (INDIANA UNIVERSITY RESEARCH AND TECHNOLOGY CORPORATION, priority 2022, published 2024).

One data set is described as follows: physchem. Particulars: pH 7.7, Solubility 80 mM AmeBicarb pH7.7.
Another data set has as its target GLP-1R (Homo sapiens, UniProt P43220). In words: GLP-1 receptor-mediated cAMP induction, luciferase reporter gene antagonism assay. The format is cell-based. Further details: host or cells: HEK 293. Particulars: antagonism of 0.05 nM GLP-1, HEK 293 cells. A digest of the protocol: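 HEK 293 cells cotransfected with human GLP-1 receptor and CRE-luciferase were serum-deprived 16 h, then given serial peptide dilutions followed by 0.05 nM GLP-1 and incubated 5 h at 37° C.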
In general terms: A reporter such as luciferase makes a cellular process visible.

Setting [1] is: Table 2, C16 linker variants of 9-40amide Jant4 K40[X], read-out: Biactivity IC50.
[2] abbreviates: 80 mM ammonium bicarbonate buffer, pH 7.7, Solubility [mg/mL] 80 mM AmBicarb pH7.7, Table 2, 80 mM AmBicarb pH7.7.
Setting [3] is: Table 4, Aib variants of 9-40am Jant4 K40[C16], read-out: Bioactivity IC50.
[4] abbreviates: 80 mM ammonium bicarbonate buffer, pH 7.7.
The mark [5] stands for this setting: PBS, pH 7.7, Solubility [mg/mL] PBS pH7.7, Table 4, PBS pH7.7.

The structures appear in SMILES notation. Values after ≈ are worked out from the molar mass of the structure shown. Like-named read-outs stand apart in the source and are kept apart here. Starred links: 1 amine or outer side, 2 acyl side, 3 side chain; linkers in the order of their positions; H or OH if unused. Non-standard residues stand in square brackets, D forms with d. Residues, ends and D or L forms follow the SMILES beside them. Groups on a side chain read outwards from the residue. *: point of attachment. C18 diacid = O=C(O)CCCCCCCCCCCCCCCCC(=O)*; γGlu = O=C(O)[C@H](CCC(=O)[*:2])N[*:1]; Palmitoyl = CCCCCCCCCCCCCCCC(=O)*; AEEA = NCCOCCOCC(=O)O; Aib = CC(C)(N)C(=O)O

GLP-1R, sequence (P43220 24-463): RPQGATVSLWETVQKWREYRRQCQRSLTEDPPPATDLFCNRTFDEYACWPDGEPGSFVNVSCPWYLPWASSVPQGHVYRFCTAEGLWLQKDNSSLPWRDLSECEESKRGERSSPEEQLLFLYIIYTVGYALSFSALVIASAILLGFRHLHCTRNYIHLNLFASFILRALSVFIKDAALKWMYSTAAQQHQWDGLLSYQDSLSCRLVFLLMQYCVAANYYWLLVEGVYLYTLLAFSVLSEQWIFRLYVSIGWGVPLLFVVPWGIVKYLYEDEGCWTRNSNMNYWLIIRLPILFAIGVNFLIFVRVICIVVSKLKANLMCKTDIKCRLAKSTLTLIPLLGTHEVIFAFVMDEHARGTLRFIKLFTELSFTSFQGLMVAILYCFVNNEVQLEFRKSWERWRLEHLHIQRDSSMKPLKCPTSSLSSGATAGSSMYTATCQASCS

In the case of `CCCCCCCCCCCCCCCC(=O)N[C@@H](CCC(=O)NCCOCCOCC(=O)NCCCC[C@H](NC(=O)[C@H](CO)NC(=O)[C@@H]1CCCN1C(=O)[C@@H]1CCCN1C(=O)[C@@H]1CCCN1C(=O)[C@H](C)NC(=O)CNC(=O)[C@H](CO)NC(=O)[C@H](CO)NC(=O)[C@@H]1CCCN1C(=O)CNC(=O)CNC(=O)[C@@H](NC(=O)[C@H](CCCNC(=N)N)NC(=O)[C@H](CC(C)C)NC(=O)[C@H](Cc1c[nH]c2ccccc12)NC(=O)[C@H](CCC(=O)O)NC(=O)[C@@H](NC(=O)[C@H](Cc1ccccc1)NC(=O)[C@H](CCC(=O)O)NC(=O)[C@H](CCCNC(=N)N)NC(=O)[C@@H](NC(=O)[C@H](C)NC(=O)[C@H](CCC(N)=O)NC(=O)[C@H](CCC(=O)O)NC(=O)[C@H](CCC(=O)O)NC(=O)[C@H](CC(C)C)NC(=O)[C@H](Cc1ccc(O)cc1)NC(=O)[C@H](CO)NC(=O)[C@H](CO)NC(=O)[C@@H](NC(=O)[C@@H](N)CC(=O)O)C(C)C)C(C)C)[C@@H](C)CC)C(C)C)C(=O)O)C(=O)O` [compound 79], in “physchem”, the solubility is above 20 mg/mL.
Take `CCCCCCCCCCCCCCCC(=O)N[C@@H](CCC(=O)N[C@@H](CCC(=O)N[C@@H](CCC(=O)N[C@@H](CCC(=O)N[C@@H](CCC(=O)N[C@@H](CCC(=O)NCCCC[C@H](NC(=O)[C@H](CO)NC(=O)[C@@H]1CCCN1C(=O)[C@@H]1CCCN1C(=O)[C@@H]1CCCN1C(=O)[C@H](C)NC(=O)CNC(=O)[C@H](CO)NC(=O)[C@H](CO)NC(=O)[C@@H]1CCCN1C(=O)CNC(=O)CNC(=O)[C@H](CCCCN)NC(=O)[C@@H](NC(=O)[C@H](CC(C)C)NC(=O)[C@H](Cc1c[nH]c2ccccc12)NC(=O)[C@H](C)NC(=O)[C@@H](NC(=O)[C@H](Cc1ccccc1)NC(=O)[C@H](CCC(=O)O)NC(=O)[C@H](CCCNC(=N)N)NC(=O)[C@@H](NC(=O)[C@H](C)NC(=O)[C@H](CCC(N)=O)NC(=O)[C@H](CCC(=O)O)NC(=O)[C@H](CCC(=O)O)NC(=O)[C@H](CC(C)C)NC(=O)[C@H](Cc1ccc(O)cc1)NC(=O)[C@H](CO)NC(=O)[C@H](CO)NC(=O)[C@@H](NC(=O)[C@@H](N)CC(=O)O)C(C)C)C(C)C)[C@@H](C)CC)C(C)C)C(N)=O)C(=O)O)C(=O)O)C(=O)O)C(=O)O)C(=O)O)C(=O)O` [compound 55] (H-DVSSYLEEQAVREFIAWLVKGGPSSGAPPPSK([γGlu-γGlu-γGlu-γGlu-γGlu-γGlu-Palmitoyl])-NH2; N-terminus assumed): on GLP-1R (setting [1]), the IC50 is 22 nM. This compound also had a solubility in the data set “Solubility in buffer” (setting [2]) above 20 mg/mL.
With `CCCCCCCCCCCCCCCC(=O)NCCCC[C@H](NC(=O)[C@H](CO)NC(=O)[C@@H]1CCCN1C(=O)[C@@H]1CCCN1C(=O)[C@@H]1CCCN1C(=O)[C@H](C)NC(=O)CNC(=O)[C@H](CO)NC(=O)[C@H](CO)NC(=O)[C@@H]1CCCN1C(=O)CNC(=O)CNC(=O)[C@H](CCCCN)NC(=O)[C@@H](NC(=O)[C@H](CC(C)C)NC(=O)[C@H](Cc1c[nH]c2ccccc12)NC(=O)[C@H](C)NC(=O)[C@@H](NC(=O)[C@H](Cc1ccccc1)NC(=O)[C@H](CCC(=O)O)NC(=O)[C@H](CCCNC(=N)N)NC(=O)C(C)(C)NC(=O)[C@H](C)NC(=O)[C@H](CCC(N)=O)NC(=O)[C@H](CCC(=O)O)NC(=O)[C@H](CCC(=O)O)NC(=O)[C@H](CC(C)C)NC(=O)[C@H](Cc1ccc(O)cc1)NC(=O)[C@H](CO)NC(=O)[C@H](CO)NC(=O)[C@@H](NC(=O)[C@@H](N)CC(=O)O)C(C)C)[C@@H](C)CC)C(C)C)C(N)=O` [compound 45] (H-DVSSYLEEQA[Aib]REFIAWLVKGGPSSGAPPPSK(Palmitoyl)-NH2; N-terminus assumed), the IC50 on GLP-1R (setting [3]) is 8 nM. Moreover, the solubility worked out at 11.1 mg/mL (≈ 3.06 mM) in the data set “Solubility in buffer” (setting [4]) and 0.4 mg/mL (≈ 0.11 mM) in “Solubility in buffer” (setting [5]).
On to `CCCCCCCCCCCCCCCC(=O)NCCCC[C@H](NC(=O)[C@H](CO)NC(=O)[C@@H]1CCCN1C(=O)[C@@H]1CCCN1C(=O)[C@@H]1CCCN1C(=O)[C@H](C)NC(=O)CNC(=O)[C@H](CO)NC(=O)[C@H](CO)NC(=O)[C@@H]1CCCN1C(=O)CNC(=O)CNC(=O)[C@H](CCCCN)NC(=O)[C@@H](NC(=O)[C@H](CC(C)C)NC(=O)[C@H](Cc1c[nH]c2ccccc12)NC(=O)[C@H](C)NC(=O)[C@@H](NC(=O)[C@H](Cc1ccccc1)NC(=O)[C@H](CCC(=O)O)NC(=O)[C@@H](CCCNC(=N)N)NC(=O)[C@@H](NC(=O)[C@H](C)NC(=O)[C@H](CCC(N)=O)NC(=O)[C@H](CCC(=O)O)NC(=O)[C@H](CCC(=O)O)NC(=O)[C@H](CC(C)C)NC(=O)[C@H](Cc1ccc(O)cc1)NC(=O)[C@H](CO)NC(=O)[C@H](CO)NC(=O)[C@@H](NC(=O)[C@@H](N)CC(=O)O)C(C)C)C(C)C)[C@@H](C)CC)C(C)C)C(N)=O` [compound 87] (H-DVSSYLEEQAV[dR]EFIAWLVKGGPSSGAPPPSK(Palmitoyl)-NH2; N-terminus assumed), for which the IC50 at GLP-1R (Table 5, d-AA variants of 9-40am Jant4 K40[C16], read-out: Bioactivity KC50) came out at 16 nM. The solubility in “Solubility in buffer” (setting [4]) amounted to 0.8 mg/mL (≈ 0.22 mM).
Regarding `CCCCCCCCCCCCCCCC(=O)NCCCC[C@H](NC(=O)[C@H](CO)NC(=O)[C@@H]1CCCN1C(=O)[C@@H]1CCCN1C(=O)[C@@H]1CCCN1C(=O)[C@H](C)NC(=O)CNC(=O)[C@H](CO)NC(=O)[C@H](CO)NC(=O)[C@@H]1CCCN1C(=O)CNC(=O)CNC(=O)[C@H](CCCNC(=N)N)NC(=O)[C@@H](NC(=O)[C@H](CC(C)C)NC(=O)[C@H](Cc1c[nH]c2ccccc12)NC(=O)[C@H](CCC(=O)O)NC(=O)[C@@H](NC(=O)[C@H](Cc1ccccc1)NC(=O)[C@H](CCC(=O)O)NC(=O)[C@H](CCCNC(=N)N)NC(=O)[C@@H](NC(=O)[C@H](C)NC(=O)[C@H](CCC(N)=O)NC(=O)[C@H](CCC(=O)O)NC(=O)[C@H](CCC(=O)O)NC(=O)[C@H](CC(C)C)NC(=O)[C@H](Cc1ccc(O)cc1)NC(=O)[C@H](CO)NC(=O)[C@H](CO)NC(=O)[C@@H](NC(=O)[C@@H](N)CC(=O)O)C(C)C)C(C)C)[C@@H](C)CC)C(C)C)C(N)=O` [compound 70] (H-DVSSYLEEQAVREFIEWLVRGGPSSGAPPPSK(Palmitoyl)-NH2), the solubility in “physchem” is above 20 mg/mL.
`CC[C@H](C)[C@H](NC(=O)[C@H](Cc1ccccc1)NC(=O)[C@H](CCC(=O)O)NC(=O)[C@H](CCCNC(=N)N)NC(=O)[C@@H](NC(=O)[C@H](C)NC(=O)[C@H](CCC(N)=O)NC(=O)[C@H](CCC(=O)O)NC(=O)[C@H](CCC(=O)O)NC(=O)[C@H](CC(C)C)NC(=O)[C@H](Cc1ccc(O)cc1)NC(=O)[C@H](CO)NC(=O)[C@H](CO)NC(=O)[C@@H](NC(=O)[C@@H](N)CC(=O)O)C(C)C)C(C)C)C(=O)N[C@@H](C)C(=O)N[C@@H](Cc1c[nH]c2ccccc12)C(=O)N[C@@H](CC(C)C)C(=O)N[C@H](C(=O)N[C@@H](CCCCN)C(=O)NCC(=O)NCC(=O)N1CCC[C@H]1C(=O)N[C@@H](CO)C(=O)N[C@@H](CO)C(=O)NCC(=O)N[C@@H](C)C(=O)N1CCC[C@H]1C(=O)N1CCC[C@H]1C(=O)N1CCC[C@H]1C(=O)N[C@@H](CO)C(=O)N[C@@H](CCCCNC(=O)COCCOCCNC(=O)CC[C@H](NC(=O)CCCCCCCCCCCCCCCCC(=O)O)C(=O)O)C(N)=O)C(C)C` [compound 68] (H-DVSSYLEEQAVREFIAWLVKGGPSSGAPPPSK([AEEA-γGlu-C18 diacid])-NH2; N-terminus assumed): the IC50 on GLP-1R (setting [1]) was determined as 718 nM. This compound also displayed a solubility in “Solubility in buffer” (setting [2]) above 25 mg/mL.
On to `CCCCCCCCCCCCCCCC(=O)NCCCC[C@H](NC(=O)[C@H](CO)NC(=O)[C@@H]1CCCN1C(=O)[C@@H]1CCCN1C(=O)[C@@H]1CCCN1C(=O)[C@H](C)NC(=O)CNC(=O)[C@H](CO)NC(=O)[C@H](CO)NC(=O)[C@@H]1CCCN1C(=O)CNC(=O)CNC(=O)[C@H](CCCCN)NC(=O)[C@@H](NC(=O)[C@H](CC(C)C)NC(=O)[C@H](Cc1c[nH]c2ccccc12)NC(=O)[C@H](C)NC(=O)[C@@H](NC(=O)[C@H](Cc1ccccc1)NC(=O)[C@H](CCC(=O)O)NC(=O)[C@H](CCCNC(=N)N)NC(=O)[C@@H](NC(=O)C(C)(C)NC(=O)[C@H](CCC(N)=O)NC(=O)[C@H](CCC(=O)O)NC(=O)[C@H](CCC(=O)O)NC(=O)[C@H](CC(C)C)NC(=O)[C@H](Cc1ccc(O)cc1)NC(=O)[C@H](CO)NC(=O)[C@H](CO)NC(=O)[C@@H](NC(=O)[C@@H](N)CC(=O)O)C(C)C)C(C)C)[C@@H](C)CC)C(C)C)C(N)=O` [compound 46] (H-DVSSYLEEQ[Aib]VREFIAWLVKGGPSSGAPPPSK(Palmitoyl)-NH2; N-terminus assumed), for which the IC50 at GLP-1R (setting [3]) was found to be 7 nM. Also, the solubility in the data set “Solubility in buffer” (setting [4]) came to 17.5 mg/mL (≈ 4.79 mM); in “Solubility in buffer” (setting [5]) it was 0.7 mg/mL (≈ 0.192 mM).
Take `CC[C@H](C)[C@H](NC(=O)[C@H](Cc1ccccc1)NC(=O)[C@H](CCC(=O)O)NC(=O)[C@H](CCCNC(=N)N)NC(=O)[C@@H](NC(=O)[C@H](C)NC(=O)[C@H](CCC(N)=O)NC(=O)[C@H](CCC(=O)O)NC(=O)[C@H](CCC(=O)O)NC(=O)[C@H](CC(C)C)NC(=O)[C@H](Cc1ccc(O)cc1)NC(=O)[C@H](CO)NC(=O)[C@H](CO)NC(=O)[C@@H](NC(=O)[C@@H](N)CC(=O)O)C(C)C)C(C)C)C(=O)N[C@@H](C)C(=O)N[C@@H](Cc1c[nH]c2ccccc12)C(=O)N[C@@H](CC(C)C)C(=O)N[C@H](C(=O)N[C@@H](CCCCN)C(=O)NCC(=O)NCC(=O)N1CCC[C@H]1C(=O)N[C@@H](CO)C(=O)N[C@@H](CO)C(=O)NCC(=O)N[C@@H](C)C(=O)N1CCC[C@H]1C(=O)N1CCC[C@H]1C(=O)N1CCC[C@H]1C(=O)N[C@@H](CO)C(=O)N[C@@H](CCCCNC(=O)CCCCCCCCCCCCCCCCC(=O)O)C(N)=O)C(C)C` [compound 63] (H-DVSSYLEEQAVREFIAWLVKGGPSSGAPPPSK(C18 diacid)-NH2; N-terminus assumed): the IC50 at GLP-1R (setting [1]) is 114 nM. In “Solubility in buffer” (setting [2]), the solubility is above 25 mg/mL.
